Source: publication PMC7115587 (European Journal of Medicinal Chemistry, 2014)

Experiments:
[1] = tested on: HCT116 (colon cancer cell line) cells; experiment: In vitro cytotoxicity
[2] = tested on: CQ resistant W2 strain of P. falciparum; experiment: In vitro antimalarial activity; format: cell-based, Plasmodium falciparum

SMILES	cytotoxicity (in words) [1]	antimalarial activity (in words) [2]
O=C1C(=O)N(CC(CO)NCCCNc2ccnc3cc(Cl)ccc23)c2ccc(Cl)cc21 (stereo not drawn) [Compound 11f, 5-Chloro-1-{2-[3-(7-Chloro-quinolin-4-ylamino)-propylamino]-3-hydroxy-propyl}-1H-indole-2,3-dione]	devoid of any cytotoxicity	–
O=C1C(=O)N(CC(CO)NCCNc2ccnc3cc(Cl)ccc23)c2ccc(Cl)cc21 (stereo not drawn) [Compound 11b, 5-Chloro-1-{2-[2-(7-Chloro-quinolin-4-ylamino)-ethylamino]-3-hydroxy-propyl}-1H-indole-2,3-dione]	devoid of any cytotoxicity	–
O=C1C(=O)N(CC(CO)NCCNc2ccnc3cc(Cl)ccc23)c2ccccc21 (stereo not drawn) [Compound 11a, 1-{2-[2-(7-Chloro-quinolin-4-ylamino)-ethylamino]-3-hydroxy-propyl}-1H-indole-2,3-dione]	–	better activity than chloroquine
